Earlier results as cited in patent publication US20070281910A1, “Salicyl alcohol creatine phosphate prodrugs, compositions and uses thereof” (XenoPort, Inc., priority 2006, published 2007).
Where two headings read alike, the source gives them in different places.

Assays:
[1] = not given; remark: listed apart in the source
[2] = animals fed a diet containing up to 1%

CN(CC(=O)O)C(=N)NP(=O)(O)O [Creatine phosphate, creatine phosphate]
adverse side effects (patients with cardiac diseases, intravenous injection up to 8 gm/day): without adverse side effects

CN(CC(=O)O)C(=N)N.O [creatine monohydrate]
adverse side effects (athletes and body builders, 2-3 gm/day): without adverse side effects

CN(CC(=O)O)C(=N)N [creatine]
overall increase of creatine phosphate levels ([1]; creatine supplementation over weeks): < 50% | duration of increase in tissue creatine phosphate levels ([1]; following oral creatine supplementation): > 14 days | increase of cerebral creatine phosphate ([1]; healthy volunteers, oral creatine administration): about 10%

NC1=NCCN1CC(=O)O [cyclocreatine]
adverse effects [2]: do not exhibit adverse effects
